Measurements from paper PMC3880581 (Nature, 2012).

Biological target: AtCHI (Arabidopsis thaliana, UniProt P41088)
Details: cyclization of the chalcone; constant not given

Chain of AtCHI (P41088 whole entry): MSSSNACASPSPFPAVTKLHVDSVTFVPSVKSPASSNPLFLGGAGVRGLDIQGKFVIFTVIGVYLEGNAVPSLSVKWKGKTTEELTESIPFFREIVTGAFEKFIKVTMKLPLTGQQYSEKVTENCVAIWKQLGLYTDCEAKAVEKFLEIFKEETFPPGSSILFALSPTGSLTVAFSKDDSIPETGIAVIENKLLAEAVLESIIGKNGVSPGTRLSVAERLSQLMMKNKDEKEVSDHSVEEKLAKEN

In the case of O=C1C[C@@H](c2ccc(O)cc2)Oc2cc(O)cc(O)c21 [(2S)-naringenin], the CHI activity assay is reported as “AtCHI catalyzes the in vitro formation of (2S)-naringenin”.
